Source: patent US20080009418A1, “Selective Inhibitors” (Alchemia LTD., priority 2004, published 2008)

Legend:
Human melanocortin (MC5) = target: T1, Human melanocortin (MC5) (Homo sapiens, UniProt P33032); test: Radioligand binding, human melanocortin MC5 membranes, FlashPlate, [125I]-NDP-αMSH; settings: compound at 10 μM; [125I]-NDP-αMSH, FlashPlate
T1 construct: purchased Perkin Elmer Biosignal
Outline: (§1)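 Cloned human receptor membranes were coated onto FlashPlate wells and incubated with radioligand and compound (added from a 0.5 mM DMSO daughter plate) for 1 hour at room temperature in the dark. Scintillation counting gave percent inhibition, with DMSO defining total and reference ligand defining non-specific binding.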

Human opioid (ORL1) = target: T2, Human opioid (ORL1) (Homo sapiens, UniProt P41146); test: Radioligand binding, human opioid ORL1 membranes, FlashPlate, [125I]-Nociceptin; settings: compound at 10 μM; [125I]-Nociceptin, FlashPlate
T2 construct: purchased Perkin Elmer Biosignal
T2 sequence (P41146 whole entry): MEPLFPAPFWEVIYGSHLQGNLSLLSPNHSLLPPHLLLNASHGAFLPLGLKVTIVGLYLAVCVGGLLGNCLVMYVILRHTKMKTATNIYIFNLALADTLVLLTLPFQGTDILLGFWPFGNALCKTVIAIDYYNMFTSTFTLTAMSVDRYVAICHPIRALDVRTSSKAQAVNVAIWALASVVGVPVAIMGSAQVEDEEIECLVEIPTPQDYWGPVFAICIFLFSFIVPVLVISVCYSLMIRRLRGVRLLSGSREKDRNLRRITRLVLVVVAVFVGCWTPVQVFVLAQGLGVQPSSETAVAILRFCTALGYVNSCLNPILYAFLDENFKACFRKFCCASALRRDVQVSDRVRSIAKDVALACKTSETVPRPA
Outline: as §1

[1] = target: T3, Human melanin-concentrating hormone (MCH1) (Homo sapiens, UniProt Q99705); test: Radioligand binding, human melanin-concentrating hormone MCH1 membranes, FlashPlate, [125I]-S36057; settings: compound at 10 μM; [125I]-S36057, FlashPlate
T3 construct: purchased Perkin Elmer Biosignal
T3 sequence (Q99705 whole entry): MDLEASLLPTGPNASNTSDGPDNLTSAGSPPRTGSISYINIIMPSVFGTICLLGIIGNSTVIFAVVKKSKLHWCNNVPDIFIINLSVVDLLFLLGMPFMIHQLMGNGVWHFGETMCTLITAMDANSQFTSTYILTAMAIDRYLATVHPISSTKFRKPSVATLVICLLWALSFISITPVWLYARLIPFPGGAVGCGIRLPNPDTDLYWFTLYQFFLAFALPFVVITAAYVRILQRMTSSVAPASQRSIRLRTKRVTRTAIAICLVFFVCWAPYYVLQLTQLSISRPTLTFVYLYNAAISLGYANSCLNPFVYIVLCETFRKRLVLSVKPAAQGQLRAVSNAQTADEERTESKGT
Outline: as §1

Mouse urotensin (mUR2) = target: T4, Mouse urotensin (mUR2) (Mus musculus, UniProt Q8VIH9); test: Radioligand binding, mouse urotensin mUR2 membranes, FlashPlate, [125I]-Urotensin II; settings: compound at 10 μM; [125I]-Urotensin II, FlashPlate
T4 construct: purchased Perkin Elmer Biosignal
T4 sequence (Q8VIH9 1-385): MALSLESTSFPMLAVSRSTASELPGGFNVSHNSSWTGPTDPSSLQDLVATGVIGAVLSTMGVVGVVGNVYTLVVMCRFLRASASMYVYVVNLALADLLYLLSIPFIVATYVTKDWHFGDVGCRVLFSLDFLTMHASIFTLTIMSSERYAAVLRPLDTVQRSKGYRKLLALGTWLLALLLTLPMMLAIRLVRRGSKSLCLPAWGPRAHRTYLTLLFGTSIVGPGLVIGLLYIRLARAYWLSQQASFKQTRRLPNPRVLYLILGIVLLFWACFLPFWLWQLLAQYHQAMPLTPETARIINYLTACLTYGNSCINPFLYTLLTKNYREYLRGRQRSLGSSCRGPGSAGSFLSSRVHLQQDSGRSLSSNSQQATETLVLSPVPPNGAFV
Outline: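 Cloned mouse urotensin (mUR2) receptor membranes from Perkin Elmer Biosignal were immobilized in FlashPlate microplates using a proprietary coating. Each well got 19.5 μl buffer, then 0.5 μl of DMSO, reference ligand, or compound. Adding 5 μl of [125I]-Urotensin II, diluted to 5× final concentration in binding buffer, started binding. Plates were sealed with TopSeal-A and incubated 1 hour at room temperature in the dark. Wells were counted for 30 seconds each on a TopCount after a 60-second delay, and percentage inhibition was calculated.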

Human Melanocortin (MC3) = target: T5, Human Melanocortin (MC3) (Homo sapiens, UniProt P41968); test: Radioligand binding, human melanocortin MC3 membranes, FlashPlate, [125I]-NDP-αMSH; settings: compound at 10 μM; [125I]-NDP-αMSH, FlashPlate
T5 construct: purchased Perkin Elmer Biosignal
T5 sequence (P41968 whole entry): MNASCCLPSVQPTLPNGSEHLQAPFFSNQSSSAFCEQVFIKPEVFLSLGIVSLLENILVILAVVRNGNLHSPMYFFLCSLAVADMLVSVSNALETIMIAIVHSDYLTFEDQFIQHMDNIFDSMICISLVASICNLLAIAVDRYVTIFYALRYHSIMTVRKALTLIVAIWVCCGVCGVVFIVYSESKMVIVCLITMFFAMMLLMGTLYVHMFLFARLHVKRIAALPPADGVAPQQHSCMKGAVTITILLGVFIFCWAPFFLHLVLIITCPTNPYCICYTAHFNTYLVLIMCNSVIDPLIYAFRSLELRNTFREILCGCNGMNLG
Outline: as §1

[2] = target: T6, Human neuropeptide Y (NPY-Y1) (Homo sapiens, UniProt P25929); test: Radioligand binding, human neuropeptide Y NPY-Y1 membranes, FlashPlate, [125I]-PYY; settings: compound at 10 μM; [125I]-PYY, FlashPlate
T6 construct: purchased Perkin Elmer Biosignal
T6 sequence (P25929 1-384): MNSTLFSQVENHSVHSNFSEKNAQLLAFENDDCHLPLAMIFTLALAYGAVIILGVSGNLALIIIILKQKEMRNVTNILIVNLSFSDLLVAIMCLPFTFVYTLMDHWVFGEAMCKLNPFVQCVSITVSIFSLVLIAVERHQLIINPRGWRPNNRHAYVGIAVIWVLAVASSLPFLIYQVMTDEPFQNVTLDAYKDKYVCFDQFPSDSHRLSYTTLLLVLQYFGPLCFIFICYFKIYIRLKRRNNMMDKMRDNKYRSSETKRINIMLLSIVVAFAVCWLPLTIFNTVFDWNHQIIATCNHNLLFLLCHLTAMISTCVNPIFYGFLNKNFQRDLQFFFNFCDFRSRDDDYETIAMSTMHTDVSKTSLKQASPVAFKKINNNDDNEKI
Outline: as §1

Human κ-Opioid (KOP) = target: T7, Human κ-Opioid (KOP) (Homo sapiens, UniProt P41145); test: Radioligand binding, human κ-opioid (KOP) membranes, filtration, [3H]-Diprenorphine; settings: compound at 10 μM; [3H]-Diprenorphine, filtration
T7 construct: purchased Perkin Elmer Biosignal
T7 sequence (P41145 whole entry): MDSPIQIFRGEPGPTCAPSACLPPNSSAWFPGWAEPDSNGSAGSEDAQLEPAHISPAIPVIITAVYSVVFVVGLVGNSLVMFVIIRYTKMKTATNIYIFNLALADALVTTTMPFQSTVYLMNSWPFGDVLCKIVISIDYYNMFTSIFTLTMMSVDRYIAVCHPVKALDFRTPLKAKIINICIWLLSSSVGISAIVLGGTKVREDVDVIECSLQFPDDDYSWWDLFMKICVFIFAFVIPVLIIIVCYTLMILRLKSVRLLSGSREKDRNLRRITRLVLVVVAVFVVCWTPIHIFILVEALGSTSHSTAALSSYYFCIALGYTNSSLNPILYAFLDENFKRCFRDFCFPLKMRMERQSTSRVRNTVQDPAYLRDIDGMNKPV
Outline: (§2)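 Membranes from cloned human receptors were incubated with compound and radioligand for 1 hour at room temperature. Bound ligand was collected on 0.3% PEI-soaked filters, washed with cold 50 mM Tris-HCl pH 7.4, and counted by scintillation. Percent inhibition was computed against DMSO totals and reference-ligand nonspecific wells.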

Human Melanocortin (MC4) = target: T8, Human Melanocortin (MC4) (Homo sapiens, UniProt P32245); test: Radioligand binding, human melanocortin MC4 membranes, FlashPlate, [125I]-NDP-αMSH; settings: compound at 10 μM; [125I]-NDP-αMSH, FlashPlate
T8 construct: purchased Perkin Elmer Biosignal
T8 sequence (P32245 whole entry): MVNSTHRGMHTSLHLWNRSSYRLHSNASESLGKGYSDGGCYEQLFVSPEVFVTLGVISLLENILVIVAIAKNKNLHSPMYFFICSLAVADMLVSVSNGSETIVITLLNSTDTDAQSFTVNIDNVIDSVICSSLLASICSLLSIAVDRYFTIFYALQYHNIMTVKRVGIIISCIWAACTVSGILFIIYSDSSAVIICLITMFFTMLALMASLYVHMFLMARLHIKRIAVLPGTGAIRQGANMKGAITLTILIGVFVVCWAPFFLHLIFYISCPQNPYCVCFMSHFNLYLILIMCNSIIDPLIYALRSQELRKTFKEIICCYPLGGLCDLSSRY
Outline: as §1

Human neurokinin (NK1) = target: T9, Human neurokinin (NK1) (Homo sapiens, UniProt P25103); test: Radioligand binding, human neurokinin NK1 membranes, filtration, [125I]-Substance P; settings: compound at 10 μM; [125I]-Substance P, filtration
T9 construct: purchased Perkin Elmer Biosignal
T9 sequence (P25103 whole entry): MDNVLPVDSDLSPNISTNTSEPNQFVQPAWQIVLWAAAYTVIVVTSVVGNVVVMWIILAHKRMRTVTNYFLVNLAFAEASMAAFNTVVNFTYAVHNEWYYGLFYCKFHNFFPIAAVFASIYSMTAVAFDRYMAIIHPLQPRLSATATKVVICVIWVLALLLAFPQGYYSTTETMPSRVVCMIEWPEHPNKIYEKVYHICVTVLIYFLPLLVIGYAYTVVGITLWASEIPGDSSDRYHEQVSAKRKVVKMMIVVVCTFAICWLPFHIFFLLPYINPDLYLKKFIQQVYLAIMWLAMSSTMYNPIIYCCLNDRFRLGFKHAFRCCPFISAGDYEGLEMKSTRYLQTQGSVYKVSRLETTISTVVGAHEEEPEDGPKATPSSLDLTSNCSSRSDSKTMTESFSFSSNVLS
Outline: as §2

Human δ-opioid (DOP) = target: T10, Human δ-opioid (DOP) (Homo sapiens, UniProt P41143); test: Radioligand binding, human δ-opioid (DOP) membranes, FlashPlate, [3H]-Bremazocine; settings: compound at 10 μM; [3H]-Bremazocine, FlashPlate
T10 construct: purchased Perkin Elmer Biosignal
T10 sequence (P41143 whole entry): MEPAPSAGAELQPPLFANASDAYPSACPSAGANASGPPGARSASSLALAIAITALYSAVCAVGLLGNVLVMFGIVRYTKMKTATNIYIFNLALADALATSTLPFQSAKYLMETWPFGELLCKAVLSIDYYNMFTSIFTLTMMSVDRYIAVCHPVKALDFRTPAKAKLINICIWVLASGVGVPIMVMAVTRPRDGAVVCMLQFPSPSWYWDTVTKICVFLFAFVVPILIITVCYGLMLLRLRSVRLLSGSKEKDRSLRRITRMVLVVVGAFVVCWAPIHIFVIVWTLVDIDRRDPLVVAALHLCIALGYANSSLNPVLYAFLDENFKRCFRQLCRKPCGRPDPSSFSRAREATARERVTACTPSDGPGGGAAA
Outline: as §1

Human μ-opioid (MOP) = target: T11, Human μ-opioid (MOP) (Homo sapiens, UniProt P35372); test: Radioligand binding, human μ-opioid (MOP) membranes, FlashPlate, [3H]-Naloxone; settings: compound at 10 μM; [3H]-Naloxone, FlashPlate
T11 construct: purchased Perkin Elmer Biosignal
T11 sequence (P35372 whole entry): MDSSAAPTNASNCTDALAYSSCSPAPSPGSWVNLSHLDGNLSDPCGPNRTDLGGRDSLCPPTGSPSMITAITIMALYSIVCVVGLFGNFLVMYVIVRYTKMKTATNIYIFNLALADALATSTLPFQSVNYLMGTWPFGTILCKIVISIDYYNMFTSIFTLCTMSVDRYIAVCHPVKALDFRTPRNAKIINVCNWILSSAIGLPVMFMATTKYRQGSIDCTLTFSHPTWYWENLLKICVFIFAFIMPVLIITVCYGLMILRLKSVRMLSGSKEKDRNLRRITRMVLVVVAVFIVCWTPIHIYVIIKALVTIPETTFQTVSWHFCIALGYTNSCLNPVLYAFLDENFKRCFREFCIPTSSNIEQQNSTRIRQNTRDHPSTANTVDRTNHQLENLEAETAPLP
Outline: as §1

T1 sequence (P33032 whole entry): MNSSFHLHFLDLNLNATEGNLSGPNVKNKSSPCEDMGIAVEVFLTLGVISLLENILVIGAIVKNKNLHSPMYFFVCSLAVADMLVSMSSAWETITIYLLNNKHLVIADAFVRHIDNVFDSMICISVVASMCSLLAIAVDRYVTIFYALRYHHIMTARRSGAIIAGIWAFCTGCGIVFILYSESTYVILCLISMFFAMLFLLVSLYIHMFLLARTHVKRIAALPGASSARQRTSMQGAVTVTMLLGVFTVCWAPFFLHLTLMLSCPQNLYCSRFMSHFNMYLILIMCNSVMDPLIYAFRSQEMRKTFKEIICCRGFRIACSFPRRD

SMILES: COCC1OC(OCc2ccc3ccccc3c2)C(NC(=O)CCN)C(OCc2ccccc2)C1O (stereo not drawn) [compound 231]
- A5: inhibition of radioligand binding (Human melanocortin (MC5)): − (“−” indicates less than 50% inhibition at 10 μM)
- A10: inhibition of radioligand binding (Human opioid (ORL1)): − (“−” indicates less than 50% inhibition at 10 μM)
- A6: inhibition of radioligand binding [1]: − (“−” indicates less than 50% inhibition at 10 μM)
- A11: inhibition of radioligand binding (Mouse urotensin (mUR2)): − (“−” indicates less than 50% inhibition at 10 μM)
- A3: inhibition of radioligand binding (Human Melanocortin (MC3)): − (“−” indicates less than 50% inhibition at 10 μM)
- A9: inhibition of radioligand binding [2]: − (“−” indicates less than 50% inhibition at 10 μM)
- A2: inhibition of radioligand binding (Human κ-Opioid (KOP)): − (“−” indicates less than 50% inhibition at 10 μM)
- A4: inhibition of radioligand binding (Human Melanocortin (MC4)): − (“−” indicates less than 50% inhibition at 10 μM)
- A8: inhibition of radioligand binding (Human neurokinin (NK1)): + (“+” indicates greater than 50% inhibition at 10 μM)
- A1: inhibition of radioligand binding (Human δ-opioid (DOP)): − (“−” indicates less than 50% inhibition at 10 μM)
- A7: inhibition of radioligand binding (Human μ-opioid (MOP)): − (“−” indicates less than 50% inhibition at 10 μM)

SMILES: COCC1OC(OCc2ccc3ccccc3c2)C(NC(=O)CCNC(=N)N)C(OCc2ccccc2)C1O (stereo not drawn) [compound 232]
- A5: inhibition of radioligand binding (Human melanocortin (MC5)): − (“−” indicates less than 50% inhibition at 10 μM)
- A10: inhibition of radioligand binding (Human opioid (ORL1)): − (“−” indicates less than 50% inhibition at 10 μM)
- A6: inhibition of radioligand binding [1]: − (“−” indicates less than 50% inhibition at 10 μM)
- A11: inhibition of radioligand binding (Mouse urotensin (mUR2)): − (“−” indicates less than 50% inhibition at 10 μM)
- A3: inhibition of radioligand binding (Human Melanocortin (MC3)): − (“−” indicates less than 50% inhibition at 10 μM)
- A9: inhibition of radioligand binding [2]: − (“−” indicates less than 50% inhibition at 10 μM)
- A2: inhibition of radioligand binding (Human κ-Opioid (KOP)): − (“−” indicates less than 50% inhibition at 10 μM)
- A4: inhibition of radioligand binding (Human Melanocortin (MC4)): − (“−” indicates less than 50% inhibition at 10 μM)
- A8: inhibition of radioligand binding (Human neurokinin (NK1)): + (“+” indicates greater than 50% inhibition at 10 μM)
- A1: inhibition of radioligand binding (Human δ-opioid (DOP)): − (“−” indicates less than 50% inhibition at 10 μM)
- A7: inhibition of radioligand binding (Human μ-opioid (MOP)): − (“−” indicates less than 50% inhibition at 10 μM)

SMILES: COCC1OC(OCc2ccc3ccccc3c2)C(NC(=O)CCCN)C(OCc2ccccc2)C1O (stereo not drawn) [compound 233]
- A5: inhibition of radioligand binding (Human melanocortin (MC5)): − (“−” indicates less than 50% inhibition at 10 μM)
- A10: inhibition of radioligand binding (Human opioid (ORL1)): − (“−” indicates less than 50% inhibition at 10 μM)
- A6: inhibition of radioligand binding [1]: − (“−” indicates less than 50% inhibition at 10 μM)
- A11: inhibition of radioligand binding (Mouse urotensin (mUR2)): − (“−” indicates less than 50% inhibition at 10 μM)
- A3: inhibition of radioligand binding (Human Melanocortin (MC3)): − (“−” indicates less than 50% inhibition at 10 μM)
- A9: inhibition of radioligand binding [2]: − (“−” indicates less than 50% inhibition at 10 μM)
- A2: inhibition of radioligand binding (Human κ-Opioid (KOP)): − (“−” indicates less than 50% inhibition at 10 μM)
- A4: inhibition of radioligand binding (Human Melanocortin (MC4)): − (“−” indicates less than 50% inhibition at 10 μM)
- A8: inhibition of radioligand binding (Human neurokinin (NK1)): + (“+” indicates greater than 50% inhibition at 10 μM)
- A1: inhibition of radioligand binding (Human δ-opioid (DOP)): − (“−” indicates less than 50% inhibition at 10 μM)
- A7: inhibition of radioligand binding (Human μ-opioid (MOP)): − (“−” indicates less than 50% inhibition at 10 μM)

SMILES: COCC1OC(OCc2ccc3ccccc3c2)C(NC(=O)CCCNC(=N)N)C(OCc2ccccc2)C1O (stereo not drawn) [compound 234]
- A5: inhibition of radioligand binding (Human melanocortin (MC5)): − (“−” indicates less than 50% inhibition at 10 μM)
- A10: inhibition of radioligand binding (Human opioid (ORL1)): − (“−” indicates less than 50% inhibition at 10 μM)
- A6: inhibition of radioligand binding [1]: − (“−” indicates less than 50% inhibition at 10 μM)
- A11: inhibition of radioligand binding (Mouse urotensin (mUR2)): − (“−” indicates less than 50% inhibition at 10 μM)
- A3: inhibition of radioligand binding (Human Melanocortin (MC3)): − (“−” indicates less than 50% inhibition at 10 μM)
- A9: inhibition of radioligand binding [2]: − (“−” indicates less than 50% inhibition at 10 μM)
- A2: inhibition of radioligand binding (Human κ-Opioid (KOP)): − (“−” indicates less than 50% inhibition at 10 μM)
- A4: inhibition of radioligand binding (Human Melanocortin (MC4)): − (“−” indicates less than 50% inhibition at 10 μM)
- A8: inhibition of radioligand binding (Human neurokinin (NK1)): + (“+” indicates greater than 50% inhibition at 10 μM)
- A1: inhibition of radioligand binding (Human δ-opioid (DOP)): − (“−” indicates less than 50% inhibition at 10 μM)
- A7: inhibition of radioligand binding (Human μ-opioid (MOP)): − (“−” indicates less than 50% inhibition at 10 μM)

SMILES: COCC1OC(OCc2ccc3ccccc3c2)C(NC(=O)CN)C(OCc2ccc(Cl)cc2)C1O (stereo not drawn) [compound 235]
- A5: inhibition of radioligand binding (Human melanocortin (MC5)): − (“−” indicates less than 50% inhibition at 10 μM)
- A10: inhibition of radioligand binding (Human opioid (ORL1)): − (“−” indicates less than 50% inhibition at 10 μM)
- A6: inhibition of radioligand binding [1]: − (“−” indicates less than 50% inhibition at 10 μM)
- A11: inhibition of radioligand binding (Mouse urotensin (mUR2)): − (“−” indicates less than 50% inhibition at 10 μM)
- A3: inhibition of radioligand binding (Human Melanocortin (MC3)): − (“−” indicates less than 50% inhibition at 10 μM)
- A9: inhibition of radioligand binding [2]: − (“−” indicates less than 50% inhibition at 10 μM)
- A2: inhibition of radioligand binding (Human κ-Opioid (KOP)): − (“−” indicates less than 50% inhibition at 10 μM)
- A4: inhibition of radioligand binding (Human Melanocortin (MC4)): − (“−” indicates less than 50% inhibition at 10 μM)
- A8: inhibition of radioligand binding (Human neurokinin (NK1)): + (“+” indicates greater than 50% inhibition at 10 μM)
- A1: inhibition of radioligand binding (Human δ-opioid (DOP)): + (“+” indicates greater than 50% inhibition at 10 μM)
- A7: inhibition of radioligand binding (Human μ-opioid (MOP)): − (“−” indicates less than 50% inhibition at 10 μM)

SMILES: COCC1OC(OCc2ccc3ccccc3c2)C(NC(=O)CNC(=N)N)C(OCc2ccc(Cl)cc2)C1O (stereo not drawn) [compound 236]
- A5: inhibition of radioligand binding (Human melanocortin (MC5)): + (“+” indicates greater than 50% inhibition at 10 μM)
- A10: inhibition of radioligand binding (Human opioid (ORL1)): − (“−” indicates less than 50% inhibition at 10 μM)
- A6: inhibition of radioligand binding [1]: + (“+” indicates greater than 50% inhibition at 10 μM)
- A11: inhibition of radioligand binding (Mouse urotensin (mUR2)): − (“−” indicates less than 50% inhibition at 10 μM)
- A3: inhibition of radioligand binding (Human Melanocortin (MC3)): + (“+” indicates greater than 50% inhibition at 10 μM)
- A9: inhibition of radioligand binding [2]: − (“−” indicates less than 50% inhibition at 10 μM)
- A2: inhibition of radioligand binding (Human κ-Opioid (KOP)): − (“−” indicates less than 50% inhibition at 10 μM)
- A4: inhibition of radioligand binding (Human Melanocortin (MC4)): + (“+” indicates greater than 50% inhibition at 10 μM)
- A8: inhibition of radioligand binding (Human neurokinin (NK1)): + (“+” indicates greater than 50% inhibition at 10 μM)
- A1: inhibition of radioligand binding (Human δ-opioid (DOP)): − (“−” indicates less than 50% inhibition at 10 μM)
- A7: inhibition of radioligand binding (Human μ-opioid (MOP)): − (“−” indicates less than 50% inhibition at 10 μM)
